These results are taken from US20240239781A1, “1H-PYRAZOLE DERIVATIVES AS SIGMA LIGANDS” (ACONDICIONAMIENTO TARRASENSE, priority 2021, published 2024).

Experiment [1] has as its target T1, human σ1 receptor (Homo sapiens, UniProt Q99720).
T1 construct: expressed in transfected cells; host or cells: HEK-293
Kind of experiment: Human σ1 receptor radioligand assay ([3H](+)-pentazocine, transfected HEK-293 membranes). The following applies: class scale, read-out: Binding σ-1 Ki. The essentials:
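Compounds were tested at a single 1 or 10 μM concentration (% inhibition) or at five concentrations to give Ki. They competed with 5 nM [3H](+)-pentazocine for transfected HEK-293 membranes (7 μg) in 50 mM Tris-HCl pH 8 at 37° C for 120 minutes. Nonspecific binding was set with 10 μM haloperidol, and a filtration scintillation read-out was used.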

Experiment [2] deals with T2, human σ2/TMEM97 receptor (Homo sapiens, UniProt Q5BJF2).
T2 construct: expressed in transfected cells; host or cells: HEK-293
T2 sequence (Q5BJF2 whole entry): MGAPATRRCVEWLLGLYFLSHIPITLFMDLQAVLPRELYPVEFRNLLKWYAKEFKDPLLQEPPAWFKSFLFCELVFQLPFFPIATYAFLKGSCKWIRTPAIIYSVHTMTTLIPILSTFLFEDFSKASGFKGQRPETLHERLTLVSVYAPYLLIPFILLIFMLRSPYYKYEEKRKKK
Kind of experiment: Binding assay to human σ2/TMEM97 receptor ([3H]-DTG, transfected HEK-293 membranes). The following applies: class scale, read-out: Binding σ-2 Ki. The essentials:
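Competition against 10 nM [3H]-DTG (Tris-HCl 50 mM, pH 8.0, 25 °C, 120 min) using 15 μg transfected HEK-293 membrane protein, with 10 μM haloperidol defining NSB. Bound radioactivity counted after filtration; results as single-point % inhibition (1 or 10 μM) or five-point Ki.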

A value given as a limit tells only on which side of the number the result lay.

T1 sequence (Q99720 whole entry): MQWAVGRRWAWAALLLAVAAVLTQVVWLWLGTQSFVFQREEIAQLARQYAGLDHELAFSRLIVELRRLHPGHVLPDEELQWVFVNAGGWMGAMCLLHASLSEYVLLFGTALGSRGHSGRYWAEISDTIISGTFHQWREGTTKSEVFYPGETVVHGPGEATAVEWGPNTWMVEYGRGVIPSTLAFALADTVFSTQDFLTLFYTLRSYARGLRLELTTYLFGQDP

For orientation: Ki means the dissociation constant of the complex between target and ligand, obtained from inhibition or displacement. In the case of `Cc1cc(-c2nn(C)c(Cl)c2CN2CCCCC(N(C)CCN3CCCCC3)C2)no1` (stereo not shown) [Example 82, 1-((5-Chloro-1-methyl-3-(5-methylisoxazol-3-yl)-1H-pyrazol-4-yl)methyl)-N-methyl-N-(2-(piperidin-1-yl)ethyl)azepan-3-amine], the figures for the Ki in experiment [1] and in experiment [2] were 500 to 1000 nM and 100 to 500 nM, respectively.

For `Cc1cc(-c2nn(C)c(Cl)c2C(=O)N2CCCC(CNCCC(C)(C)C)C2)no1` (stereo not shown) [Example 83, (5-Chloro-1-methyl-3-(5-methylisoxazol-3-yl)-1H-pyrazol-4-yl)(3-(((3,3-dimethylbutyl)amino)methyl)piperidin-1-yl)methanone], the Ki in experiment [1] is 500 to 1000 nM; in experiment [2], less than 100 nM.

As for `Cc1cc(-c2nn(C)c(Cl)c2C(=O)N2CCCCC(NCCC(C)C)C2)no1` (stereo not shown) [Example 84, (5-Chloro-1-methyl-3-(5-methylisoxazol-3-yl)-1H-pyrazol-4-yl)(3-(isopentylamino)azepan-1-yl)methanone], the Ki in experiment [1] was more than 1000 nM; in experiment [2], 100 to 500 nM.

In the case of `Cc1cc(-c2nn(C)c(Cl)c2C(=O)N2CCCCC(NCCc3ccccc3)C2)no1` (stereo not shown) [Example 85, (5-Chloro-1-methyl-3-(5-methylisoxazol-3-yl)-1H-pyrazol-4-yl)(3-(phenethylamino)azepan-1-yl)methanone], the Ki in experiment [1] was more than 1000 nM; in experiment [2], 100 to 500 nM.

Turning to `Cc1cc(-c2nn(C)c(Cl)c2C(=O)N2CCCCC(NCc3ccccc3)C2)no1` (stereo not shown) [Example 86, (3-(Benzylamino)azepan-1-yl)(5-chloro-1-methyl-3-(5-methylisoxazol-3-yl)-1H-pyrazol-4-yl)methanone], the inhibition constant (Ki) was more than 1000 nM in experiment [1] and 100 to 500 nM in experiment [2].

On to `Cc1cc(-c2nn(C)c(Cl)c2C(=O)N2CCC3(CCN(CCC(C)(C)C)C3)CC2)no1` [Example 87, (5-Chloro-1-methyl-3-(5-methylisoxazol-3-yl)-1H-pyrazol-4-yl)(2-(3,3-dimethylbutyl)-2,8-diazaspiro[4.5]decan-8-yl)methanone], for which the Ki was 500 to 1000 nM in experiment [1] and less than 100 nM in experiment [2].

On to `Cc1cc(-c2nn(C)c(Cl)c2C(=O)N2CCC3(CCN(CCC(C)(C)C)CC3)CC2)no1` [Example 88, (5-Chloro-1-methyl-3-(5-methylisoxazol-3-yl)-1H-pyrazol-4-yl)(9-(3,3-dimethylbutyl)-3,9-diazaspiro[5.5]undecan-3-yl)methanone], for which the Ki in experiment [1] is 500 to 1000 nM; in experiment [2], less than 100 nM.

For the compound `Cc1cc(-c2nn(C)c(Cl)c2C(=O)N2CCC3(CCN(CC(C)C)CC3)CC2)no1` [Example 89, (5-Chloro-1-methyl-3-(5-methylisoxazol-3-yl)-1H-pyrazol-4-yl)(9-isobutyl-3,9-diazaspiro[5.5]undecan-3-yl)methanone], the Ki in experiment [1] and in experiment [2] was more than 1000 nM throughout.

For the compound `Cc1cc(-c2nn(C)c(Cl)c2C(=O)N2CCC3(CCN(CCC(C)C)CC3)CC2)no1` [Example 90, (5-Chloro-1-methyl-3-(5-methylisoxazol-3-yl)-1H-pyrazol-4-yl)(9-isopentyl-3,9-diazaspiro[5.5]undecan-3-yl)methanone], the Ki in experiment [1] was 500 to 1000 nM; in experiment [2] it was 100 to 500 nM.

`Cc1cc(-c2nn(C)c(Cl)c2C(=O)N2CCC3(CCCN(CCC(C)(C)C)C3)CC2)no1` [Example 91, (5-Chloro-1-methyl-3-(5-methylisoxazol-3-yl)-1H-pyrazol-4-yl)(2-(3,3-dimethylbutyl)-2,9-diazaspiro[5.5]undecan-9-yl)methanone]: the Ki in experiment [1] was 500 to 1000 nM; in experiment [2], less than 100 nM.

For the compound `Cc1cc(-c2nn(C)c(Cl)c2C(=O)N2CCCC3(CCN(CCC(C)(C)C)CC3)C2)no1` [Example 92, (5-Chloro-1-methyl-3-(5-methylisoxazol-3-yl)-1H-pyrazol-4-yl)(9-(3,3-dimethylbutyl)-2,9-diazaspiro[5.5]undecan-2-yl)methanone], the Ki in experiment [1] and in experiment [2] was less than 100 nM each time.

For the compound `Cc1cc(-c2nn(C)c(Cl)c2C(=O)N2CCC3(CCC(NCCC(C)C)CC3)CC2)no1` [Example 93, (5-Chloro-1-methyl-3-(5-methylisoxazol-3-yl)-1H-pyrazol-4-yl)(9-(isopentylamino)-3-azaspiro[5.5]undecan-3-yl)methanone], the inhibition constant (Ki) in experiment [1] is more than 1000 nM; in experiment [2] it was 100 to 500 nM.

On to `Cc1cc(-c2nn(C)c(Cl)c2C(=O)N2CCC3(CCN(CCC(C)(C)C)CC3)C2)no1` [Example 94, (5-Chloro-1-methyl-3-(5-methylisoxazol-3-yl)-1H-pyrazol-4-yl)(8-(3,3-dimethylbutyl)-2,8-diazaspiro[4.5]decan-2-yl)methanone], for which the inhibition constant (Ki) is more than 1000 nM in experiment [1] and 100 to 500 nM in experiment [2].

As to `Cc1cc(-c2nn(C)c(Cl)c2C(=O)N2CCCC(CNCC(C)C)C2)no1` (stereo not shown) [Example 95, (5-Chloro-1-methyl-3-(5-methylisoxazol-3-yl)-1H-pyrazol-4-yl)(3-((isobutylamino)methyl)piperidin-1-yl)methanone], the Ki in experiment [1] and in experiment [2] was more than 1000 nM in each case.

Consider `Cc1cc(-c2nn(C)c(Cl)c2C(=O)N2CCC3(CCC(NCCC(C)(C)C)CC3)CC2)no1` [Example 96, (5-Chloro-1-methyl-3-(5-methylisoxazol-3-yl)-1H-pyrazol-4-yl)(9-((3,3-dimethylbutyl)amino)-3-azaspiro[5.5]undecan-3-yl)methanone], for which the Ki in experiment [1] is more than 1000 nM; in experiment [2], 100 to 500 nM.

As for `CCc1cc(-c2nn(C)c(Cl)c2C(=O)N2CCC3(CCN(CCC(C)(C)C)CC3)CC2)no1` [Example 97, (5-Chloro-3-(5-ethylisoxazol-3-yl)-1-methyl-1H-pyrazol-4-yl)(9-(3,3-dimethylbutyl)-3,9-diazaspiro[5.5]undecan-3-yl)methanone], the Ki was 100 to 500 nM in experiment [1] and less than 100 nM in experiment [2].

Regarding `Cc1cc(-c2nn(C)c(F)c2C(=O)N2CCC3(CCN(CCC(C)(C)C)CC3)CC2)no1` [Example 98, (9-(3,3-Dimethylbutyl)-3,9-diazaspiro[5.5]undecan-3-yl)(5-fluoro-1-methyl-3-(5-methylisoxazol-3-yl)-1H-pyrazol-4-yl)methanone], the Ki was 500 to 1000 nM in experiment [1] and less than 100 nM in experiment [2].

Turning to `CCn1nc(-c2cc(C)on2)c(C(=O)N2CCC3(CCN(CCC(C)(C)C)CC3)CC2)c1Cl` [Example 99, (5-Chloro-1-ethyl-3-(5-methylisoxazol-3-yl)-1H-pyrazol-4-yl)(9-(3,3-dimethylbutyl)-3,9-diazaspiro[5.5]undecan-3-yl)methanone], the Ki is 500 to 1000 nM in experiment [1] and less than 100 nM in experiment [2].

For `Cc1conc1-c1nn(C)c(Cl)c1C(=O)N1CCC2(CCN(CCC(C)(C)C)CC2)CC1` [Example 100, (5-Chloro-1-methyl-3-(4-methylisoxazol-3-yl)-1H-pyrazol-4-yl)(9-(3,3-dimethylbutyl)-3,9-diazaspiro[5.5]undecan-3-yl)methanone], the Ki was 500 to 1000 nM in experiment [1] and less than 100 nM in experiment [2].

Take `Cc1cc(-c2nn(-c3ccccc3)c(Cl)c2C(=O)N2CCC3(CCN(CCC(C)(C)C)CC3)CC2)no1` [Example 101, (5-Chloro-3-(5-methylisoxazol-3-yl)-1-phenyl-1H-pyrazol-4-yl)(9-(3,3-dimethylbutyl)-3,9-diazaspiro[5.5]undecan-3-yl)methanone]: the Ki in experiment [1] and in experiment [2] was less than 100 nM in each case.
